Experimental data from article PMC11352859, “Functionalized Congeners of 2H-Chromene P2Y6 Receptor Antagonists” (Cells, 2024).
Where “and” joins values, the source holds several entries; their conditions need not be identical. Equal values may be shown once. Read-outs that look alike come from different tables or passages of the source.

Columns and labels:
[1] = target: T1, SERT (Homo sapiens, UniProt P31645); assay: PDSP binding assay, SERT; conditions: Table S2, single determination
T1 construct: NIMH Psychoactive Drug Screening Program (PDSP)
Description: (§1) Table S2. Off-target screening (to replace table later). We thank Dr. Bryan L. Roth (Univ. North Carolina at Chapel Hill) and National Institute of Mental Health's Psychoactive Drug Screening Program (Contract # HHSN-271-2008-00025-C) for screening data. Reference: Besnard et al.
(§2) Procedures: https://pdsp.unc.edu/pdspweb/content/UNC-CH%20Protocol%20Book.pdf […]
(§3) nucleosides were found at the following sites (human unless noted): 5HT1A, 5HT1B, 5HT1D, […]
(§4) β3, BZP rat brain site, D1, D2, D3, D4, D5, GABAA, H1, H2, H3, H4, M1, M2, M5, δ-opioid receptor (DOR), κ-opioid receptor (KOR), μ-opioid receptor (MOR), σ1, σ2, DAT, NET, SERT. Ki values […]
(§5) Compound # PDSP # Receptor LogKi Ki (nM)

[2] = target: T2, κ-opioid receptor (KOR) (Homo sapiens, UniProt P41145); assay: PDSP binding assay, κ-opioid
T2 construct: NIMH Psychoactive Drug Screening Program (PDSP)
Description: as §1, §2, §3, §4, §5

[3] = target: T3, H2 (Homo sapiens, UniProt P25021); assay: PDSP binding assay, H2; conditions: mean, n = 2
T3 construct: NIMH Psychoactive Drug Screening Program (PDSP)
Description: as §1, §2, §3, §4, §5

[4] = target: T4, D5 (Homo sapiens, UniProt P21918); assay: PDSP binding assay, D5
T4 construct: NIMH Psychoactive Drug Screening Program (PDSP)
Description: as §1, §2, §3, §4, §5

[5] = target: T5, D3 (Homo sapiens, UniProt P35462); assay: PDSP binding assay, D3; conditions: Table S2, single determination
T5 construct: NIMH Psychoactive Drug Screening Program (PDSP)
Description: as §1, §2, §3, §4, §5

[6] = target: T6, α2A (Homo sapiens, UniProt P08913); assay: PDSP binding assay, α2A
T6 construct: NIMH Psychoactive Drug Screening Program (PDSP)
T6 sequence (P08913 1-465): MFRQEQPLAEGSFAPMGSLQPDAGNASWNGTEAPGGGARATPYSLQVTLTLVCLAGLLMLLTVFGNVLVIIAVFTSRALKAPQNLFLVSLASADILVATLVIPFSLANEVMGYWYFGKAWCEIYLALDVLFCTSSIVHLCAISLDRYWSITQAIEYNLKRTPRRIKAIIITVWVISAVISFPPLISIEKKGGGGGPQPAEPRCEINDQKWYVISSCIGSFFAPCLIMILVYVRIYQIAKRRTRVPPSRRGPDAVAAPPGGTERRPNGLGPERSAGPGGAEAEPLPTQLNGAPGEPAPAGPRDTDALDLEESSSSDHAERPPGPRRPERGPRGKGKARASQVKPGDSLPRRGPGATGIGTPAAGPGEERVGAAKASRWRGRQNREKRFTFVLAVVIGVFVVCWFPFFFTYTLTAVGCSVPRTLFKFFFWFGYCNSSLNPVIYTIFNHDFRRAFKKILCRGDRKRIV
Description: as §1, §2, §3, §4, §5

[7] = test system: HeLa cells; assay: MTT cell viability assay, HeLa cells; assay type: cell-based, human; conditions: for % survival: 12 h, MTT
Method: The 1321N1 astrocytoma (hP2Y6R-overexpressing) and HeLa (non-transfected) cell lines were cultured in Dulbecco’s modified Eagle’s medium (DMEM, HyClone, Logan, UT, USA) supplemented with 5% heat-inactivated fetal bovine serum (FBS, HyClone, UT, USA), 100 U/mL penicillin, and 100 µg/mL streptomycin in 5% CO2 at 37 °C. The cell viability was determined using an MTT kit (Sigma, St. Louis, MO, USA) according to the manufacturer’s instructions. Briefly, 1 × 10^4 cells were seeded in triplicate in 96-well plates. The hP2Y6R-astrocytoma and HeLa cells were treated with a P2Y6R agonist and antagonists at a range of concentrations and incubated for 12 h. The cell viability was measured at 490 nm using a SpectraMax-M5 Spectrometer (Molecular Devices, San Jose, CA, USA).

[8] = target: T7, hP2Y6R (Homo sapiens, UniProt Q15077); assay: UDP (100 nM)-induced Ca2+ mobilization in hP2Y6R stably transfected 1321N1 astrocytoma cells; assay type: cell-based
T7 construct: expressed in transfected cells
Method: To screen for P2Y6R antagonist activity, PLC-mediated calcium mobilization assays were carried out using the recombinant human P2Y6R stably expressed in 1321N1 astrocytoma cells (hP2Y6R-1321N1) according to the previously published method. Briefly, the hP2Y6R-1321N1 cells were seeded on 96-well black plates and incubated overnight. The antagonists were pretreated along with the FLIPR dye (Calcium 6 assay kit, Molecular Devices, San Jose, CA, USA) containing 5 mM probenecid for 45 min, prior to agonist addition followed by an immediate intracellular Ca^2+ measurement. […] Here, probenecid was used as an organic anion transporter inhibitor to prevent the efflux of the dye into the extracellular environment. During incubation, the membrane permeable dye enters the cytoplasm and cleaves the acetoxymethyl protection to enable Ca^2+ binding. When the P2Y6R was activated by UDP, the increased calcium concentration was directly measured by intracellular changes in the fluorescence intensity with a Fluorescent Imaging Plate Reader (FLIPR^TETRA, Molecular Devices, San Jose, CA, USA).

[9] = test system: 45 target sites (receptors, channels, and transporters); assay: PDSP off-target binding screen at 45 target sites; design: species or system human; conditions: PDSP binding assays
Description: as §1, §2, §3, §4, §5

[10] = target: T8, H1 (Homo sapiens, UniProt P35367); assay: PDSP binding assay, H1; conditions: Table S2, single determinations; read-out: Ki (nM), H1
T8 construct: NIMH Psychoactive Drug Screening Program (PDSP)
Description: as §1, §2, §3, §4, §5

[11] = target: T9, α2B (Homo sapiens, UniProt P18089); assay: PDSP binding assay, α2B; conditions: mean, n = 2
T9 construct: NIMH Psychoactive Drug Screening Program (PDSP)
T9 sequence (P18089 1-450): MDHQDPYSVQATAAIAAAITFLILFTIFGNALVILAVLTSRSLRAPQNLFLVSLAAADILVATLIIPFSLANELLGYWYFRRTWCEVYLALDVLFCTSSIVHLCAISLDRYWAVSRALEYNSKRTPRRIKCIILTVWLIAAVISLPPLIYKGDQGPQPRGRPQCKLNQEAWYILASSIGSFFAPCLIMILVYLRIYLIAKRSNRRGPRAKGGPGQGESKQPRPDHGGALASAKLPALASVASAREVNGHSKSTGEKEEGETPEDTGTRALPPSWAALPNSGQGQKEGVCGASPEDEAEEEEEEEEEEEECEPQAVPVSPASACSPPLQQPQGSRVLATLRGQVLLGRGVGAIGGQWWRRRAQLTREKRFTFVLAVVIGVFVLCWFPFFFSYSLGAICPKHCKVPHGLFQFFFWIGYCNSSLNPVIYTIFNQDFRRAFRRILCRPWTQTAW
Description: as §1, §2, §3, §4, §5

[12] = target: T10, D2 (Homo sapiens, UniProt P14416); assay: PDSP binding assay, D2; conditions: Table S2, single determination
T10 construct: NIMH Psychoactive Drug Screening Program (PDSP)
Description: as §1, §2, §3, §4, §5

T4 sequence (P21918 whole entry): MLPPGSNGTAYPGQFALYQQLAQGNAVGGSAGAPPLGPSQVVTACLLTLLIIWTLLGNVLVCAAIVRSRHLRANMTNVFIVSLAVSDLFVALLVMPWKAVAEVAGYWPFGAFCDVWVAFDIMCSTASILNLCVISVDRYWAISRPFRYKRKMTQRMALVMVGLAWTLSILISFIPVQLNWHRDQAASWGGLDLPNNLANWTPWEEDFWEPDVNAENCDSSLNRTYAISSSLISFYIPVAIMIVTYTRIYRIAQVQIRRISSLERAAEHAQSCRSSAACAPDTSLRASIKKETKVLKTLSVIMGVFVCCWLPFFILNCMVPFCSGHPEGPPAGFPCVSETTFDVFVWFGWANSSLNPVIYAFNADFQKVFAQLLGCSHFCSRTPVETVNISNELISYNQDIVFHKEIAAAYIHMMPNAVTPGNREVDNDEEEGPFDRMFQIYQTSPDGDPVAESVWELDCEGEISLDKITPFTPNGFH
T8 sequence (P35367 whole entry): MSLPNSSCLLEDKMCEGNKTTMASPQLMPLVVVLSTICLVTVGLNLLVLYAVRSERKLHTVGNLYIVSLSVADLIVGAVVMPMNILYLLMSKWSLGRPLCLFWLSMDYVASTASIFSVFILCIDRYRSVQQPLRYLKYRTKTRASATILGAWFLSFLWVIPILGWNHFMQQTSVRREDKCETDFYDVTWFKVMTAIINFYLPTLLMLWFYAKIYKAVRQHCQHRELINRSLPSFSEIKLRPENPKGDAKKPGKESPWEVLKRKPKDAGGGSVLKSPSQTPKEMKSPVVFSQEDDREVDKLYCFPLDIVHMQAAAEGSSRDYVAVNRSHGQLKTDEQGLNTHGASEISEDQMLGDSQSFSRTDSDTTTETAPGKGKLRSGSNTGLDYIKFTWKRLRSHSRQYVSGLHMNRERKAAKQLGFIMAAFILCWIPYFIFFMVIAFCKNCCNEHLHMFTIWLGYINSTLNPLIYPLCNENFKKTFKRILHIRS
T2 sequence (P41145 whole entry): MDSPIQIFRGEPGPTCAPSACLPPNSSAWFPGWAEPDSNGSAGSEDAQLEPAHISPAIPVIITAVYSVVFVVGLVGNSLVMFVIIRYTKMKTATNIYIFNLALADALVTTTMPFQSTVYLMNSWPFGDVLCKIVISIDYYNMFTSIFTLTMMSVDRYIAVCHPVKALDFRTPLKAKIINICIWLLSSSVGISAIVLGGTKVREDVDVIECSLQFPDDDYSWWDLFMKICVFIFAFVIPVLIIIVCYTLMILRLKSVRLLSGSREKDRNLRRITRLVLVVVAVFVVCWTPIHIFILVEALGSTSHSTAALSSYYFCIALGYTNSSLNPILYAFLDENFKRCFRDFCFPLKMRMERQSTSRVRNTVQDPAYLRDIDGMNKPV
T7 sequence (Q15077 whole entry): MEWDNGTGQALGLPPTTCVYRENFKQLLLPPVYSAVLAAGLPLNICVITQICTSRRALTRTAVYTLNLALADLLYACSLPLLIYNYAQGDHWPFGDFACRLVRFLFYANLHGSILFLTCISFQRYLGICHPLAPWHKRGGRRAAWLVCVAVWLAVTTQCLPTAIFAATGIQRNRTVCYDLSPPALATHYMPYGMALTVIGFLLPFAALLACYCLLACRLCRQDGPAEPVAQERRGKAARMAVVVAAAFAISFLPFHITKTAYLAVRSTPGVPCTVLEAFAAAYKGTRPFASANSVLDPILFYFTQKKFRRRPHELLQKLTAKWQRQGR
T1 sequence (P31645 whole entry): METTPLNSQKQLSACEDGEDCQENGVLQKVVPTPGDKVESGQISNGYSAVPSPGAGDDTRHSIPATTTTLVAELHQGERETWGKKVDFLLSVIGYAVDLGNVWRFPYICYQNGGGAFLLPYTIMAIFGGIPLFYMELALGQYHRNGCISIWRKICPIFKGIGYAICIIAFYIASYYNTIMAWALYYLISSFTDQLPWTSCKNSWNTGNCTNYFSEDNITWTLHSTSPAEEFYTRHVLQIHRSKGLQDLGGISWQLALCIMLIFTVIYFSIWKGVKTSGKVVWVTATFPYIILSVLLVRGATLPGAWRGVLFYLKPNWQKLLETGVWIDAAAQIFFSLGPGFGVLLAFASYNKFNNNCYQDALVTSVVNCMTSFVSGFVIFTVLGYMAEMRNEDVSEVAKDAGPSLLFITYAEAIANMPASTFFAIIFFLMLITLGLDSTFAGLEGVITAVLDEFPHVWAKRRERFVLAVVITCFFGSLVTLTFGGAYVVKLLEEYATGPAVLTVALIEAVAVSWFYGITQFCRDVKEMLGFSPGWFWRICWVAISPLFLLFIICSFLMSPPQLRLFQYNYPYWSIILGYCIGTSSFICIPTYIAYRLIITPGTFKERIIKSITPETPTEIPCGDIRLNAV
T3 sequence (P25021 whole entry): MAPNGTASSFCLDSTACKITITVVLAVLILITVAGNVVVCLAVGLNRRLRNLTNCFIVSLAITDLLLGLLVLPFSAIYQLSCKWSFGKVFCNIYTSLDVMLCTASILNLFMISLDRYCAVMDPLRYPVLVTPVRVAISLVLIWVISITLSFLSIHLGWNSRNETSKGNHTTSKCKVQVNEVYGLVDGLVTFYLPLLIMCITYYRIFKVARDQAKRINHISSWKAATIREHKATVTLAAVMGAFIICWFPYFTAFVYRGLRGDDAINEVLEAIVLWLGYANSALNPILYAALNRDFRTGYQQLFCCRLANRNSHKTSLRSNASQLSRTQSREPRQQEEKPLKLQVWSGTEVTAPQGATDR
T5 sequence (P35462 whole entry): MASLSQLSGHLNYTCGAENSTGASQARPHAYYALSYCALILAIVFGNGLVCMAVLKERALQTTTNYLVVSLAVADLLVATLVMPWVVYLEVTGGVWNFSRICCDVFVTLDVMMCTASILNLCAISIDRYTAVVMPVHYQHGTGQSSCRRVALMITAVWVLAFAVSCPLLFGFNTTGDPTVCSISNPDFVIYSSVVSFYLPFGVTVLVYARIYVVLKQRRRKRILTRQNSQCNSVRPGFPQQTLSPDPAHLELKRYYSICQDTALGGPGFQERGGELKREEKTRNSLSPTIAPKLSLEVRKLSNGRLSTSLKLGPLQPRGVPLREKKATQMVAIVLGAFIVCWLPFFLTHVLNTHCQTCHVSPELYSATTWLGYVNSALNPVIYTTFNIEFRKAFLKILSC
T10 sequence (P14416 whole entry): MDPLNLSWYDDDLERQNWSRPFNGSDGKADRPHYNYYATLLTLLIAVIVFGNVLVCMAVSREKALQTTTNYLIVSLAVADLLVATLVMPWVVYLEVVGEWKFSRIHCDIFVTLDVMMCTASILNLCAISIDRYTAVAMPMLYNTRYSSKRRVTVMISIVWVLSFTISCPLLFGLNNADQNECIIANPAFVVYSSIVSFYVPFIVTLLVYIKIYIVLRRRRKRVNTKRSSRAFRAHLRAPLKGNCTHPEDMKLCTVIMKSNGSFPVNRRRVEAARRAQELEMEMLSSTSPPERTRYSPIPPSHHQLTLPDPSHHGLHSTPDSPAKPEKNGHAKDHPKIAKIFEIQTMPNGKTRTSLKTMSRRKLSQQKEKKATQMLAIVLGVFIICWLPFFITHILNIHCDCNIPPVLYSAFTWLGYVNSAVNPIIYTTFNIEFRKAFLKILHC

Q: How did the Ki [1] turn out when `CC(C)(C)OC(=O)NCCCCCCCC#Cc1ccc2c(c1)C=C([N+](=O)[O-])C(C(F)(F)F)O2` (centres unmarked) [Compound 30, tert-Butyl (9-(3-nitro-2-(trifluoromethyl)-2H-chromen-6-yl)non-8-yn-1-yl)carbamate] was run?
A: > 10000 nM

Q: What about the Ki ([2]; PDSP, mean, n = 2, read-out: Ki, κ-opioid) of the same molecule?
A: 2200 nM

Q: And the Ki ([2]; Table S2, single determination, read-out: Ki (nM), KOR)?
A: 1400 nM

Q: What about the Ki [3] of the same molecule?
A: 500 nM

Q: And the Ki ([4]; PDSP, mean, n = 2, read-out: Ki, D5)?
A: 780 nM

Q: What about the Ki ([4]; Table S2, single determinations, read-out: Ki (nM), D5) of the same molecule?
A: 643 nM and 911 nM

Q: And the Ki [5]?
A: > 10000 nM

Q: What about the Ki ([6]; PDSP, mean, n = 2, read-out: Ki, α2A) of the same molecule?
A: 86 nM

Q: What about the Ki ([6]; Table S2, single determinations, read-out: Ki (nM), Alpha2A) of the same molecule?
A: 80.2 nM and 90.7 nM

Q: What about the “% survival” value ([7]; 0.05 µM) of the same molecule?
A: 94%

Q: And the “% survival” value ([7]; 0.1 µM)?
A: 94%

Q: What about the “% survival” value ([7]; 0.5 µM) of the same molecule?
A: 87%

Q: What about the “% survival” value ([7]; 1 µM) of the same molecule?
A: 71%

Q: What about the inhibition of viability ([7]; at 1 µM, 12 h exposure) of the same molecule?
A: 29%

Q: And the IC50 ([8]; UDP 100 nM, 3–4 independent triplicate determinations, read-out: IC50, hP2Y6R (Mean ± SEM))?
A: 162 ± 13 nM

Q: What about the “fold greater affinity than the corresponding pivaloyl derivative” value ([8]; hP2Y6R IC50 ratio) of the same molecule?
A: 107 fold

Q: And the “off-target interactions at 45 target sites” value [9]?
A: seven off-target interactions

Q: What about the Ki [10] of the same molecule?
A: 630 nM and 366 nM

Q: What about the Ki [11] of the same molecule?
A: 170 nM

Q: What about the Ki [12] of the same molecule?
A: > 10000 nM
